# Where two headings read alike, the source gives them in different places.
# Experiments:
# aminopeptidase B = target: T1, aminopeptidase B (Rattus norvegicus, UniProt O09175); assay: Inhibitory activity against aminopeptidase B; format: biochemical; settings: for IC50: read-out: ID50 (the source's name) (converted); for inhibitory effect relative to Bestatin: compared with Bestatin
# T1 construct: aminopeptidase B solution which is prepared by Sephadex 100 chromatography as described by Hopusu et al; from tissue
# T1 sequence (O09175 1-650): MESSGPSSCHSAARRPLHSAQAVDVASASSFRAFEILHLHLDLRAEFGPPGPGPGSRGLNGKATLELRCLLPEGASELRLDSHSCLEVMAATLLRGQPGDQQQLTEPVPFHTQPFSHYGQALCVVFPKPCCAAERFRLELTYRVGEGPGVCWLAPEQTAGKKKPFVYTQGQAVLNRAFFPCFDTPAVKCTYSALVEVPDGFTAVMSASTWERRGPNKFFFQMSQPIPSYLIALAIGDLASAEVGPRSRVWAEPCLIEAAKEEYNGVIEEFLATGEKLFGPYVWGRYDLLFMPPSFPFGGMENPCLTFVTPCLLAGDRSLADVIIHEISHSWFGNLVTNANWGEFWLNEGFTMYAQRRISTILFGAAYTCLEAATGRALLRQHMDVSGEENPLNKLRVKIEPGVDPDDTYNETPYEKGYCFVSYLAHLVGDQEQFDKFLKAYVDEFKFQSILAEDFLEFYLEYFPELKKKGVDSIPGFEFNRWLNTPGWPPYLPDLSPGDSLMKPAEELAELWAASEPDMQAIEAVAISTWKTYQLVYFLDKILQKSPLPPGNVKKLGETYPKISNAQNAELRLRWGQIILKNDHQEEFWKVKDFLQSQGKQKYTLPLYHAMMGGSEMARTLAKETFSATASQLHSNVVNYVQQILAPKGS
# Description: (A) Inhibitory activity against aminopeptidase B Testing method: The method described by […] in Archives of Biochemistry and Biophysics 114, 557, (1966) was modfied. To the mixture of 0.3 ml. of 1 mM arginine β-naphthylamide and 1.0 Ml. of 0.1 M Tris hydrochloride buffer (pH 7.0), 0.7 Ml. of distilled water with or without a test material is added and warmed at 37° C. for 3 minutes. The reaction is started by addition of 0.2 ml. of aminopeptidase B solution which is prepared by Sephadex 100 chromatography as described by Hopusu et al. […] Fifteen minutes at room temperature thereafter, absorbance (a) at 530 nm is measured by spectrophotometer. […] The inhibition percent is calculated as follows: (b-a)/b×100.
# [1] = system: plaque forming cells in the spleen; assay: Effect on humoral antibody formation to Sheep Red Blood Cell (SRBC) in mice (JERNE's hemolytic plaque technique); format: in vivo, Mice (dd/y female); settings: for Antibody Forming Cells Number / Antibody Forming Cells Treated Group / Non-treated Group: intraperitoneal, four days
# Description: The compound of Example 28 was also tested for its humoral antibody formation to find its efficacy as an immunizing cancer inhibitor. […] For the humoral antibody formation of Bestatin per se see J. Antibiotics, 29(8), 857-859 (August, 1976).
# The effect of (2RS,3RS)-3-amino-2-hydroxy-4-hydroxyphenylbutanoyl-(S)-leucine on humoral antibody formation to Sheep Red Blood Cell (SRBC) in mice was studied as follows.
# Mice (dd/y female) were immunized by intravenous injection of 10^8 SRBC. Intraperitoneal injection of (2RS,3RS)-3-amino-2-hydroxy-4-hydroxyphenylbutanoyl-(S)-leucine was made soon afterwards.
# Four days thereafter the number of plaque forming cells in the spleen were enumerated by JERNE's hemolytic plaque technique [Jerne, N. K.; A. A. Nordin & C. Henry: "The Agar Plaque Technique for Recognizing Antibody-producing Cells" in cell-bound antibodies (Wistar Institute Press, Philadelphia, 1963), pp. 109-122].
# [2] = pH 7.0, 37° C., 30 minutes, Table 1
# [3] = Biological Testing table after Example 29
smiles,measurement,setting,value
"N[C@H](Cc1ccccc1)[C@H](O)C(=O)N[C@@H](CCC(=O)O)C(=O)O [No. 14, (2S,3R)-3-amino-2-hydroxy-4-phenylbutanoyl-(S)-glutamic acid]",ID50,aminopeptidase B; [2],25 µg/mL
"CC(C)C[C@H](NC(=O)[C@@H](O)[C@H](N)Cc1ccc(O)cc1)C(=O)O [Example 29, (2S,3R)-3-amino-2-hydroxy-4-p-hydroxyphenylbutanoyl-(S)-leucine]",IC50,aminopeptidase B; [3],21.6 nM
same,inhibitory effect relative to Bestatin,aminopeptidase B,one-fourteenth of Bestatin
"CC(C)C[C@H](NC(=O)C(O)[C@H](N)CC(C)C)C(=O)O (stereo partly drawn) [No. 17, (2RS,3R)-30 amino-2-hydroxy-5-methylhexanoyl-(S)-leucine]",ID50,aminopeptidase B; [2],12 µg/mL
CC(C)C[C@H](NC(=O)C(O)[C@@H](C)N)C(=O)O (some centres unmarked) [No. 16],ID50,aminopeptidase B; [2],16 µg/mL
"CC(C)C[C@H](NC(=O)[C@@H](O)[C@H](N)Cc1ccc(N)cc1)C(=O)O [No. 23, (2S,3R)-3-amino-2-hydroxy-4-p-aminophenylbutanoyl-(S)-leucine]",ID50,aminopeptidase B; [2],0.10 µg/mL
"CC[C@H](C)[C@H](NC(=O)[C@@H](O)[C@H](N)Cc1ccccc1)C(=O)O [No. 7, (2S,3R)-3-amino-2-hydroxy-4-phenylbutanoyl-(S)-isoleucine]",IC50,aminopeptidase B; [2],162 nM
"CC(C)C[C@H](NC(=O)C(O)[C@H](N)c1ccccc1)C(=O)O (stereo partly drawn) [No. 18, (2RS,3R)-3-amino-2-hydroxy-3-phenylpropionyl-(S)-leucine]",ID50,aminopeptidase B; [2],56 µg/mL
"CCCC[C@H](NC(=O)[C@@H](O)[C@H](N)Cc1ccccc1)C(=O)O [No. 11, (2S,3R)-3-amino-2-hydroxy-4-phenylbutanoyl-(S)-norleucine]",ID50,aminopeptidase B; [2],0.13 µg/mL
"NC(=O)CC[C@H](NC(=O)[C@@H](O)[C@H](N)Cc1ccccc1)C(=O)O [No. 9, (2S,3R)-3-amino-2-hydroxy-4-phenylbutanoyl-(S)-glutamine]",ID50,aminopeptidase B; [2],1.2 µg/mL
"CC(C)C[C@@H](NC(=O)[C@@H](O)[C@@H](N)Cc1ccccc1)C(=O)O [No. 4, (2S,3S)-3-amino-2-hydroxy-4-phenylbutanoyl-(R)-leucine]",IC50,aminopeptidase B; [2],130 nM
"Cc1ccc(CC(N)C(O)C(=O)N[C@@H](CC(C)C)C(=O)O)cc1 (stereo partly drawn) [No. 21, (2RS,3RS)-3-amino-2-hydroxy-4-p-methylphenylbutanoyl-(S)-leucine]",ID50,aminopeptidase B; [2],0.01 µg/mL
"CCCCCCC(NC(=O)[C@@H](O)[C@H](N)Cc1ccccc1)C(=O)O (stereo partly drawn) [No. 15, (2S,3R)-3-amino-2-hydroxy-4-phenylbutanoyl-(RS)-2-aminooctanoic acid]",ID50,aminopeptidase B; [2],3.1 µg/mL
"CC(C)C[C@@H](NC(=O)[C@@H](O)[C@H](N)Cc1ccccc1)C(=O)O [No. 3, (2S,3R)-3-amino-2-hydroxy-4-phenylbutanoyl-(R)-leucine]",ID50,aminopeptidase B; [2],0.56 µg/mL
"CC(C)C[C@H](NC(=O)[C@@H](O)[C@@H](N)Cc1ccccc1)C(=O)O [No. 2, (2S,3S)-3-amino-2-hydroxy-4-phenylbutanoyl-(S)-leucine]",ID50,aminopeptidase B; [2],1.25 µg/mL
"CSCC[C@H](NC(=O)[C@@H](O)[C@H](N)Cc1ccccc1)C(=O)O [No. 8, (2S,3R)-3-amino-2-hydroxy-4-phenylbutanoyl-(S)-methionine]",ID50,aminopeptidase B; [2],0.22 µg/mL
"N[C@H](Cc1ccccc1)[C@H](O)C(=O)N[C@@H](CO)C(=O)O [No. 13, (2S,3R)-3-amino-2-hydroxy-4-phenylbutanoyl-(S)-serine]",IC50,aminopeptidase B; [2],2550 nM
"CC(C)C[C@H](NC(=O)[C@@H](O)[C@H](N)Cc1ccc([N+](=O)[O-])cc1)C(=O)O [No. 22, (2S,3R)-3-amino-2-hydroxy-4-p-nitrophenylbutanoyl-(S)-leucine]",ID50,aminopeptidase B; [2],0.01 µg/mL
"CC(C)C[C@H](NC(=O)C(O)C(N)Cc1ccc(O)cc1)C(=O)O (stereo partly drawn) [Example 28, (2RS,3RS)-3-amino-2-hydroxy-4-p-hydroxyphenylbutanoyl-(S)-leucine]",IC50,aminopeptidase B; [3],308 nM
same,inhibitory effect relative to Bestatin,aminopeptidase B,substantially the same inhibitory effects as Bestatin
same,number of antibody forming cells relative to non-treated mice,[1]; 1 mcg.,1.41 times
same,number of antibody forming cells relative to non-treated mice,[1]; 10 mcg.,1.66 times
same,Antibody Forming Cells Number,[1]; dose 1 mg.,"207,400±8,025"
same,Antibody Forming Cells Treated Group / Non-treated Group,[1]; dose 1 mg.,1.66
same,Antibody Forming Cells Number,[1]; dose 0.1 mcg.,"141,000±5,700"
same,Antibody Forming Cells Treated Group / Non-treated Group,[1]; dose 0.1 mcg.,1.13
same,Antibody Forming Cells Number,[1]; dose 1 mcg.,"175,800±8,200"
same,Antibody Forming Cells Treated Group / Non-treated Group,[1]; dose 1 mcg.,1.41
same,Antibody Forming Cells Number,[1]; dose 10 mcg.,"208,000±7,180"
same,Antibody Forming Cells Treated Group / Non-treated Group,[1]; dose 10 mcg.,1.66
same,Antibody Forming Cells Number,[1]; dose 100 mcg.,"261,000±11,700"
same,Antibody Forming Cells Treated Group / Non-treated Group,[1]; dose 100 mcg.,2.09
same,number of humoral antibody (forming) cells,[1]; in words,increasing the number of humoral antibody cells to a considerable degree
same,number of nonspecific antibody forming cells,[1]; in words,did not increase the weight of the spleen or the number of nonspecific antibody forming cells
same,weight of the spleen,[1]; in words,did not increase the weight of the spleen
same,number of humoral antibody (forming) cells,"[1]; in words, listed as (2RS,3RS)-3-amino-2-hydroxy-4-hydroxybutanoyl-(S)-leucine",excellent effect of increasing the number of antibody forming cells
"N[C@H](Cc1ccccc1)[C@H](O)C(=O)N[C@@H](Cc1ccccc1)C(=O)O [No. 12, (2S,3R)-3-amino-2-hydroxy-4-phenylbutanoyl-(S)-phenylalanine]",ID50,aminopeptidase B; [2],4.2 µg/mL
"CC(C)C[C@H](NC(=O)C(O)C(N)Cc1ccc(Cl)cc1)C(=O)O (stereo partly drawn) [No. 19, (2RS,3RS)-3-amino-2-hydroxy-4-p-chlorophenylbutanoyl-(S)-leucine]",number of antibody forming cells compared with non-treated group,"[1]; 10 mcg., in words",nearly equal to that of non-treated group
same,Antibody Forming Cells Number,[1]; dose 1 mg.,"208,750±8,000"
same,Antibody Forming Cells Treated Group / Non-treated Group,[1]; dose 1 mg.,1.67
same,Antibody Forming Cells Number,[1]; dose 10 mcg.,"133,750±5,600"
same,Antibody Forming Cells Treated Group / Non-treated Group,[1]; dose 10 mcg.,1.07
"CC(C)C[C@H](NC(=O)[C@@H](O)[C@H](N)CC1CCCCC1)C(=O)O [No. 24, (2S,3R)-3-amino-2-hydroxy-4-cyclohexylbutanoyl-(S)-leucine]",IC50,aminopeptidase B; [2],3340 nM
"N[C@H](Cc1ccccc1)[C@H](O)C(=O)NCC(=O)O [No. 5, (2S,3R)-3-amino-2-hydroxy-4-phenylbutanoyl-glycine]",ID50,aminopeptidase B; [2],21.5 µg/mL

# — patent US4189604A, “Bestatin” (Zaidan Hojin Biseibutsu Kagaku Kenkyu Kai, priority 1975, dated 1980)
